Assay in all cases: stopped-flow CO2 hydration
Common to all, as to assay type: biochemical

In one test the target is T1, hCA II (Homo sapiens, UniProt P00918).
T1 construct: gene CA2
From the text:
stopped-flow CO2 hydration on hCA II

For another test, the target named is T2, hCA VA (Homo sapiens, UniProt P35218).
T2 construct: gene CA5A
The source says: stopped-flow CO2 hydration on hCA VA

The next test addresses T3, hCA I (Homo sapiens, UniProt P00915).
T3 construct: gene CA1
From the text:
stopped-flow CO2 hydration on hCA I

In the next test the target is T4, hCA XII (Homo sapiens, UniProt O43570).
T4 construct: gene CA12
T4 sequence (O43570 25-354): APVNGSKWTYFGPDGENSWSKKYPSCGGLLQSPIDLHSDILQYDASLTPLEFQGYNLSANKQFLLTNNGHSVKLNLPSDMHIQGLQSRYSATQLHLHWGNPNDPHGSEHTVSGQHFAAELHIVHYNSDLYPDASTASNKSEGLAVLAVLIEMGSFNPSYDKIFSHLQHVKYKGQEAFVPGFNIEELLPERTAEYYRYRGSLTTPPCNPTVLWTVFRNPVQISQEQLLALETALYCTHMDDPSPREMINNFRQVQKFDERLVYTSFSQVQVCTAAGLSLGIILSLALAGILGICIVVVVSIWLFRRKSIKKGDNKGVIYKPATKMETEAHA
The source says: stopped-flow CO2 hydration on hCA XII

Like-named read-outs stand apart in the source and are kept apart here.

The term Ki denotes the dissociation constant of the complex between target and ligand, obtained from inhibition or displacement.

T2 sequence (P35218 39-305): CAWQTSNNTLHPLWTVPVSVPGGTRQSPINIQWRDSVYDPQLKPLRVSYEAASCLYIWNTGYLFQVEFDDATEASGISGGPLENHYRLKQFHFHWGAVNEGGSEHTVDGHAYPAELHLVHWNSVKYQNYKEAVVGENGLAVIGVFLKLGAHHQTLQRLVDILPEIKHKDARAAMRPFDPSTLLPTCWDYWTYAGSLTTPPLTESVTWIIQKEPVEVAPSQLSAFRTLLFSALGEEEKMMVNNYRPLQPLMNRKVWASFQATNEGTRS
T3 sequence (P00915 2-261): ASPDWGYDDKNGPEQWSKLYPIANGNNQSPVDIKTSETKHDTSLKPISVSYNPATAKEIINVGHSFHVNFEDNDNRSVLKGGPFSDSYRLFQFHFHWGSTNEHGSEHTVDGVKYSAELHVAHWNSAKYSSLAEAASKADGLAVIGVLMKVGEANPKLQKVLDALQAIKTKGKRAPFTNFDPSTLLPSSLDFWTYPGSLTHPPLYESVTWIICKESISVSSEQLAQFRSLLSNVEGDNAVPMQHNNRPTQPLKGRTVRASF

As to `CC(C)(C)OC(=O)NCC(=O)NCc1ccc(S(N)(=O)=O)cc1` [compound 17, tert-Butyl (2-oxo-2-((4-sulphamoylbenzyl)amino)ethyl)carbamate], the Ki at hCA II was determined as 0.0068 µM; at hCA VA it was 3.65 µM; at hCA I it was 3.34 µM; on hCA XII it was 0.0088 µM.
On to `NS(=O)(=O)c1ccc(CNC(=O)[C@@H](Cc2c[nH]c3ccccc23)NC(=O)OCc2ccccc2)cc1` [compound 23, Benzyl (R)-(3-(1H-indol-3-yl)-1-oxo-1-((4-sulphamoylbenzyl)amino)propan-2-yl)carbamate], for which the Ki turned out to be 0.0009 µM on hCA II, 0.401 µM at hCA VA, 0.305 µM on hCA I and 0.0781 µM at hCA XII.
For the compound `NS(=O)(=O)c1ccc(CCNC(=O)[C@@H](CSc2ccccc2)NC(=O)OCc2ccccc2)cc1` [compound 4, Benzyl (S)-(1-oxo-3-(phenylthio)-1-((4-sulphamoylphenethyl)amino)propan-2-yl)carbamate], the values for the Ki on hCA VA, at hCA I and on hCA XII were 0.0633 µM, 0.352 µM and 0.0084 µM, respectively.
`CC[C@@H](C)[C@@H](NC(=O)OC(C)(C)C)C(=O)NCCc1ccc(S(N)(=O)=O)cc1` [compound 11, tert-Butyl ((2R,3R)-3-methyl-1-oxo-1-((4-sulphamoylphenethyl)amino)pentan-2-yl)carbamate]: the values for the Ki on hCA VA, on hCA I and at hCA XII were 3.87 µM, 0.349 µM and 0.0562 µM, respectively.
With `NS(=O)(=O)c1ccc(CCNC(=O)C[C@@H](NC(=O)OCc2ccccc2)C(=O)NCCc2ccc(S(N)(=O)=O)cc2)cc1` [compound 12, Benzyl (R)-(1,4-dioxo-1,4-bis((4-sulphamoylphenethyl)amino)butan-2-yl)carbamate], the Ki amounted to 0.215 µM on hCA II, 3.14 µM at hCA VA, 0.689 µM at hCA I and 0.0244 µM on hCA XII.
On to `CSCC[C@@H](NC(=O)OCc1ccccc1)C(=O)NCCc1ccc(S(N)(=O)=O)cc1` [compound 2, Benzyl (R)-(4-(methylthio)-1-oxo-1-((4-sulphamoylphenethyl)amino)butan-2-yl)carbamate], for which the Ki was 0.0017 µM on hCA II, 0.0634 µM at hCA VA and 0.0539 µM at hCA XII.
Take `NS(=O)(=O)c1ccc(CNC(=O)[C@H](Cc2ccccc2)NC(=O)OCC2c3ccccc3-c3ccccc32)cc1` [compound 20, (9H-fluoren-9-yl)methyl (S)-(1-oxo-3-phenyl-1-((4-sulphamoylbenzyl)amino)propan-2-yl)carbamate]: the inhibition constant (Ki) was 0.693 µM at hCA II, 6.83 µM on hCA VA, 5.17 µM on hCA I and 0.0267 µM on hCA XII.
Take `CSCC[C@@H](NC(=O)OCc1ccccc1)C(=O)NCc1ccc(S(N)(=O)=O)cc1` [compound 14, Benzyl (R)-(4-(methylthio)-1-oxo-1-((4-sulphamoylbenzyl)amino)butan-2-yl)carbamate]: the Ki worked out at 0.0089 µM at hCA II, 0.384 µM on hCA VA, 0.0093 µM on hCA I and 0.0743 µM on hCA XII.
For `CSCC[C@@H](NC(=O)OC(C)(C)C)C(=O)NCc1ccc(S(N)(=O)=O)cc1` [compound 21, tert-Butyl (R)-(4-(methylthio)-1-oxo-1-((4-sulphamoylbenzyl)amino)butan-2-yl)carbamate] the same measures were 0.316 µM, 4.99 µM, 5.36 µM and 0.0039 µM.
Take `C[C@@H](NC(=O)OC(C)(C)C)C(=O)NCc1ccc(S(N)(=O)=O)cc1` [compound 18, tert-Butyl (R)-(1-oxo-1-((4-sulphamoylbenzyl)amino)propan-2-yl)carbamate]: the Ki on hCA II came out at 0.0068 µM; at hCA VA, 5.36 µM; at hCA I, 3.89 µM; on hCA XII, 0.0206 µM.
Regarding `CSCC[C@H](NC(=O)OC(C)(C)C)C(=O)NCCc1ccc(S(N)(=O)=O)cc1` [compound 9, tert-Butyl (S)-(4-(methylthio)-1-oxo-1-((4-sulphamoylphenethyl)amino)butan-2-yl)carbamate], the inhibition constant Ki on hCA VA amounted to 0.611 µM; on hCA I, 4.39 µM; on hCA XII it was 0.329 µM.
In the case of `CC(C)[C@@H](NC(=O)OC(C)(C)C)C(=O)NCc1ccc(S(N)(=O)=O)cc1` [compound 22, tert-Butyl (R)-(3-methyl-1-oxo-1-((4-sulphamoylbenzyl)amino)butan-2-yl)carbamate], the Ki on hCA II is 0.168 µM; at hCA VA it was 4.78 µM; on hCA I, 0.753 µM; at hCA XII, 0.0901 µM.
As to `CC[C@@H](C)[C@@H](NC(=O)OC(C)(C)C)C(=O)NCc1ccc(S(N)(=O)=O)cc1` [compound 24, tert-Butyl ((2R,3R)-3-methyl-1-oxo-1-((4-sulphamoylbenzyl)amino)pentan-2-yl)carbamate], the inhibitory constant (Ki) was 0.0008 µM at hCA II, 4.58 µM on hCA VA, 0.178 µM on hCA I and 0.0503 µM on hCA XII.
As to `NS(=O)(=O)c1ccc(CNC(=O)[C@@H](CSc2ccccc2)NC(=O)OCc2ccccc2)cc1` [compound 16, Benzyl (S)-(1-oxo-3-(phenylthio)-1-((4-sulphamoylbenzyl)amino)propan-2-yl)carbamate], the Ki amounted to 0.0033 µM at hCA II, 3.96 µM at hCA VA, 0.764 µM at hCA I and 0.0371 µM at hCA XII.
Turning to `CC(C)[C@@H](NC(=O)OC(C)(C)C)C(=O)NCCc1ccc(S(N)(=O)=O)cc1` [compound 10, tert-Butyl (R)-(3-methyl-1-oxo-1-((4-sulphamoylphenethyl)amino)butan-2-yl)carbamate], the Ki stood at 0.661 µM at hCA VA, 2.99 µM on hCA I and 0.197 µM on hCA XII.
Regarding `CC(C)[C@@H](NC(=O)OCc1ccccc1)C(=O)NCc1ccc(S(N)(=O)=O)cc1` [compound 15, Benzyl (R)-(3-methyl-1-oxo-1-((4-sulphamoylbenzyl)amino)butan-2-yl)carbamate], the Ki on hCA II amounted to 0.0284 µM; on hCA VA, 0.503 µM; on hCA I, 0.0081 µM; at hCA XII, 0.0677 µM.
Consider `CC(C)[C@@H](NC(=O)OCc1ccccc1)C(=O)NCCc1ccc(S(N)(=O)=O)cc1` [compound 3, Benzyl (R)-(3-methyl-1-oxo-1-((4-sulphamoylphenethyl)amino)butan-2-yl)carbamate], for which the inhibitory constant (Ki) on hCA VA amounted to 0.0603 µM; on hCA I, 0.0516 µM; at hCA XII, 0.0072 µM.
On to `NS(=O)(=O)c1ccc(CCNC(=O)[C@H](Cc2ccccc2)NC(=O)OCC2c3ccccc3-c3ccccc32)cc1` [compound 7, (9H-fluoren-9-yl)methyl (S)-(1-oxo-3-phenyl-1-((4-sulphamoylphenethyl)amino)propan-2-yl)carbamate], for which the Ki on hCA II came out at 0.0764 µM; on hCA VA, 3.44 µM; at hCA I it was 0.697 µM; at hCA XII, 0.0389 µM.
For `CC(C)(C)OC(=O)N[C@H](Cc1ccccc1)C(=O)NCc1ccc(S(N)(=O)=O)cc1` [compound 19, tert-Butyl (R)-(1-oxo-3-phenyl-1-((4-sulphamoylbenzyl)amino)propan-2-yl)carbamate] the same measures were 0.0614 µM, 0.734 µM, 3.78 µM and 0.0069 µM.
As for `NS(=O)(=O)c1ccc(CCNC(=O)CNC(=O)OCC2c3ccccc3-c3ccccc32)cc1` [compound 6, (9H-fluoren-9-yl)methyl (2-oxo-2-((4-sulphamoylphenethyl)amino)ethyl)carbamate], the Ki on hCA II came to 0.0064 µM; on hCA VA, 0.0679 µM; on hCA I it was 0.036 µM; at hCA XII it was 0.0082 µM.
With `C[C@@H](NC(=O)OC(C)(C)C)C(=O)NCCc1ccc(S(N)(=O)=O)cc1` [compound 5, tert-Butyl (R)-(1-oxo-1-((4-sulphamoylphenethyl)amino)propan-2-yl)carbamate], the inhibitory constant (Ki) was 0.0066 µM on hCA II, 0.0687 µM at hCA VA, 0.0735 µM on hCA I and 0.0456 µM at hCA XII.
Turning to `CC(C)C[C@@H](NC(=O)OCc1ccccc1)C(=O)NCCc1ccc(S(N)(=O)=O)cc1` [compound 1, Benzyl (R)-(4-methyl-1-oxo-1-((4-sulphamoylphenethyl)amino)pentan-2-yl)carbamate], the Ki was determined as 0.0083 µM on hCA II; 0.0587 µM on hCA VA (CO2 […], […] HEPES pH […] Na2SO4, […] min preincubation, room temperature); 0.0495 µM on hCA I; 0.0274 µM at hCA XII.
Take `NS(=O)(=O)c1ccc(CCNC(=O)[C@@H](Cc2c[nH]c3ccccc23)NC(=O)OCc2ccccc2)cc1` [compound 8, Benzyl (R)-(3-(1H-indol-3-yl)-1-oxo-1-((4-sulphamoylphenethyl)amino)propan-2-yl)carbamate]: the Ki on hCA II came to 0.0065 µM; on hCA VA, 3.01 µM; at hCA I it was 0.528 µM; on hCA XII it was 0.0055 µM.
For `CC(C)C[C@@H](NC(=O)OCc1ccccc1)C(=O)NCc1ccc(S(N)(=O)=O)cc1` [compound 13, Benzyl (R)-(4-methyl-1-oxo-1-((4-sulphamoylbenzyl)amino)pentan-2-yl)carbamate] the same measures were 0.0866 µM, 0.578 µM, 0.0611 µM and 0.0398 µM.

These data come from PMC6968503, “Synthesis and human carbonic anhydrase I, II, VA, and XII inhibition with novel amino acid–sulphonamide conjugates” (Journal of Enzyme Inhibition and Medicinal Chemistry, 2020).
